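Five concentrations, 48 hours, 96-well plates. GI50 is the concentration that inhibits growth by half.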 The source made the active and inactive calls. No stated cut-off is given here; in the data, active = GI50 up to about 1.1 µM and inactive = higher.
Experiments:
Assay in all cases: inhibition of tumour cell growth, NCI panel, 48 h
EKVX = test system: EKVX
SF-539 = test system: SF-539
KM12 = test system: KM12
U-251 = test system: U-251
A498 = test system: A498
OVCAR-8 = test system: OVCAR-8
HCT-15 = test system: HCT-15
SK-MEL-2 = test system: SK-MEL-2
BT-549 = test system: BT-549
SF-295 = test system: SF-295
SF-268 = test system: SF-268
OVCAR-3 = test system: OVCAR-3
MCF7 = test system: MCF7
PC-3 = test system: PC-3
UACC-62 = test system: UACC-62
HT-29 = test system: HT-29
OVCAR-4 = test system: OVCAR-4
NCI-H23 = test system: NCI-H23
CCRF-CEM = test system: CCRF-CEM
UACC-257 = test system: UACC-257
HOP-92 = test system: HOP-92
MDA-MB-231 = test system: MDA-MB-231
HCT-116 = test system: HCT-116
OVCAR-5 = test system: OVCAR-5
NCI/ADR-RES = test system: NCI/ADR-RES
SK-MEL-28 = test system: SK-MEL-28
LOX IMVI = test system: LOX IMVI
NCI-H460 = test system: NCI-H460
UO-31 = test system: UO-31
SNB-19 = test system: SNB-19
HOP-62 = test system: HOP-62
SNB-75 = test system: SNB-75
MOLT-4 = test system: MOLT-4
HCC 2998 = test system: HCC 2998
786-0 = test system: 786-0
MDA-MB-435 = test system: MDA-MB-435
T47D = test system: T47D
A549 = test system: A549
RPMI-8226 = test system: RPMI-8226
RXF 393 = test system: RXF 393
M14 = test system: M14
SW-620 = test system: SW-620
COLO 205 = test system: COLO 205
K562 = test system: K562
IGROV-1 = test system: IGROV-1
Hs-578T = test system: Hs-578T
NCI-H226 = test system: NCI-H226
SK-MEL-5 = test system: SK-MEL-5
SR = test system: SR
SK-OV-3 = test system: SK-OV-3
DU-145 = test system: DU-145
TK-10 = test system: TK-10
Malme-3M = test system: Malme-3M
ACHN = test system: ACHN
CAKI-1 = test system: CAKI-1
HL-60 = test system: HL-60
MDA-N = test system: MDA-N

## NC1=CN2c3ccccc3N(CC(=O)O)C2C=C1 (stereo unspecified)
EKVX
  GI50: > 100 µM (inactive)
SF-539
  GI50: > 100 µM (inactive)
KM12
  GI50: > 100 µM (inactive)
U-251
  GI50: > 100 µM (inactive)
A498
  GI50: > 100 µM (inactive)
OVCAR-8
  GI50: > 100 µM (inactive)
HCT-15
  GI50: > 100 µM
SK-MEL-2
  GI50: > 100 µM (inactive)
BT-549
  GI50: > 100 µM (inactive)
SF-295
  GI50: > 100 µM (inactive)
SF-268
  GI50: > 100 µM (inactive)
OVCAR-3
  GI50: > 100 µM (inactive)
MCF7
  GI50: > 100 µM (inactive)
PC-3
  GI50: > 100 µM (inactive)
UACC-62
  GI50: > 100 µM (inactive)
HT-29
  GI50: > 100 µM (inactive)
OVCAR-4
  GI50: > 100 µM (inactive)
NCI-H23
  GI50: > 100 µM (inactive)
CCRF-CEM
  GI50: > 100 µM (inactive)
UACC-257
  GI50: > 100 µM (inactive)
HOP-92
  GI50: > 100 µM (inactive)
MDA-MB-231
  GI50: > 100 µM (inactive)
HCT-116
  GI50: > 100 µM (inactive)
OVCAR-5
  GI50: > 100 µM (inactive)
NCI/ADR-RES
  GI50: > 100 µM (inactive)
SK-MEL-28
  GI50: > 100 µM (inactive)
LOX IMVI
  GI50: > 100 µM (inactive)
NCI-H460
  GI50: > 100 µM (inactive)
UO-31
  GI50: > 100 µM (inactive)
SNB-19
  GI50: > 100 µM (inactive)
HOP-62
  GI50: > 100 µM (inactive)
SNB-75
  GI50: > 100 µM (inactive)
MOLT-4
  GI50: > 100 µM (inactive)
HCC 2998
  GI50: > 100 µM (inactive)
786-0
  GI50: > 100 µM (inactive)
MDA-MB-435
  GI50: > 100 µM (inactive)
T47D
  GI50: > 100 µM (inactive)
A549
  GI50: > 100 µM (inactive)
RPMI-8226
  GI50: > 100 µM (inactive)
RXF 393
  GI50: > 100 µM (inactive)
M14
  GI50: > 100 µM (inactive)
SW-620
  GI50: > 100 µM (inactive)
COLO 205
  GI50: > 100 µM (inactive)
K562
  GI50: > 100 µM (inactive)
IGROV-1
  GI50: > 100 µM (inactive)
Hs-578T
  GI50: > 100 µM (inactive)
NCI-H226
  GI50: > 100 µM (inactive)
SK-MEL-5
  GI50: > 100 µM (inactive)
SR
  GI50: > 100 µM (inactive)
SK-OV-3
  GI50: > 100 µM (inactive)
DU-145
  GI50: > 100 µM (inactive)
TK-10
  GI50: > 100 µM (inactive)
Malme-3M
  GI50: > 100 µM (inactive)
ACHN
  GI50: > 100 µM (inactive)
CAKI-1
  GI50: > 100 µM (inactive)
HL-60
  GI50: > 100 µM (inactive)

## O=c1[nH]c2ccc(CC(=S)N3CCCCC3)cc2s1
EKVX
  GI50: 0.214 µM (active)
KM12
  GI50: > 100 µM (inactive)
OVCAR-8
  GI50: > 100 µM (inactive)
HCT-15
  GI50: > 100 µM
SK-MEL-2
  GI50: > 100 µM (inactive)
BT-549
  GI50: > 100 µM (inactive)
SF-295
  GI50: > 100 µM (inactive)
OVCAR-3
  GI50: > 100 µM (inactive)
MCF7
  GI50: > 100 µM (inactive)
PC-3
  GI50: > 100 µM (inactive)
UACC-62
  GI50: > 100 µM (inactive)
NCI-H23
  GI50: > 100 µM (inactive)
UACC-257
  GI50: > 100 µM (inactive)
MDA-MB-231
  GI50: > 100 µM (inactive)
MDA-N
  GI50: > 100 µM (inactive)
HCT-116
  GI50: > 100 µM (inactive)
OVCAR-5
  GI50: > 100 µM (inactive)
SK-MEL-28
  GI50: > 100 µM (inactive)
LOX IMVI
  GI50: > 100 µM (inactive)
SNB-19
  GI50: > 100 µM (inactive)
HOP-62
  GI50: 71.9 µM (inactive)
SNB-75
  GI50: 0.163 µM (active)
MOLT-4
  GI50: > 100 µM (inactive)
786-0
  GI50: > 100 µM (inactive)
MDA-MB-435
  GI50: > 100 µM (inactive)
M14
  GI50: > 100 µM (inactive)
SW-620
  GI50: > 100 µM (inactive)
COLO 205
  GI50: > 100 µM (inactive)
K562
  GI50: > 100 µM (inactive)
SR
  GI50: 26.4 µM (inactive)
SK-OV-3
  GI50: > 100 µM (inactive)
DU-145
  GI50: > 100 µM (inactive)
TK-10
  GI50: > 100 µM (inactive)
ACHN
  GI50: > 100 µM (inactive)
CAKI-1
  GI50: 91.6 µM (inactive)

Source: ChEMBL document CHEMBL1201862, “PubChem BioAssay data set” (2004)
